Source: patent US7829524B2, “Antimicrobial peptides” (Novozymes Adenium Biotech A/S, priority 2003, dated 2010)
Read-outs that look alike come from different tables or passages of the source. Where no end group is shown, it is not given here.

Legend:
[1] = system: Micrococcus luteus (ATCC9341); assay type: cell-based; settings: ATCC9341
Description: (§1) According to the NCCLS guidelines for susceptibility test of novel antimicrobial compounds, we found a broad spectrum of activity of Cat1 (Methods for Dilution Antimicrobial Susceptibility Tests for Bacteria That Grow Aerobically; Approved Standard-Fifth Edition. NCCLS document M7-A5 (ISBN1-56238-394-9)).
(§2) In another campaign, the specific MICs of Cat1 were determined against a variety of microbial strains relevant for wound infections. As recommended in the above-mentioned NCCLS protocol, the strains were grown in cationic adjusted Muller-Hinton Broth. The highest concentration tested was 32 μg/ml.
(§3) The antimicrobial activity of the polypeptides of the invention was analyzed using the Microdilution Broth Assay (see Example 1) with Mueller Hinton Broth (MHB) media. Four different bacterial strains were tested in this setup; Micrococcus luteus (ATCC 9341), Pseudomonas aeruginosa (ATCC 27853), Escherichia coli (ATCC 10536) and Klebsiella pneumoniae (DSM681). The amino acid sequence of the polypeptides and the Minimal Inhibitory concentrations (MIC, microgram/ml) obtained is presented in Table 7 below.

[2] = system: Pseudomonas aeroginosa (ATCC27853); assay type: cell-based, Pseudomonas aeruginosa; settings: ATCC27853
Description: as §1, §2
Minimal inhibitory concentrations of Cat1 were also determined using cation-adjusted Mueller hinton broth (MHB) in the microbroth dilution assay, wherein MHB was used with different modifications as depicted in Table 2 below. The selected test organism was Pseudomonas aeroginosa (ATCC 27853). […]

[3] = system: Eschericia coil (ATCC10536); assay type: cell-based, Escherichia coli; settings: ATCC10536
Description: as §1, §3

Escherichia coli Top10 = assay: Radial Diffusion Assay using minimal conditions (MEC); assay type: cell-based; settings: Table 8
Description: (§4) A modified version of a previously published protocol has been applied in the detection of antimicrobial activity (Lehrer et al., (1991) Ultra sensitive assays for endogenous antimicrobial polypeptides J Immunol Methods 137: 167-173). Target bacteria (10^6 colony forming units (CFU)) were added to 10 ml of underlay agarose (1% low electro-endosmosis agarose, 0.03% Trypticase soy broth, 10 mM sodium phosphate, pH 7.4, 37 degrees Celsius). Suspension was solidified on an INTEGRID Petri Dish (Becton Dickinson Labware). A 3 mm Gel Puncher was used to make holes in the underlay agarose (Amersham Pharmacia Biotech, Sweden). Samples were added to the holes and incubated at 37 degrees Celsius, 3 hours. An overlay was poured on top and the plate was incubated overnight (LB media, 7.5% Agar). Antimicrobial activity was seen as bacterial clearing zones around the wells. Living cells was counterstained by adding 10 ml, 0.2 mM MTT (3-(4,5-Dimethylthiazol-2-yl)-2,5-diphenyltetrazolium bromide Thiazolyl blue).
(§5) The antimicrobial activity of the polypeptides of the invention was also analyzed in a Radial Diffusion Assay (see Example 1) using minimal conditions. Two bacterial strains were tested in this setup; Staphylococcus camosus and Escherichia coli Top10. The amino acid sequence of the polypeptides and the Minimal Effective Concentration (MEC, microgram/ml) obtained is presented in table 8 below.

Staphylococcus camosus = assay: as above; assay type: cell-based; settings: Table 8
Description: as §4, §5

E. coli TOP10 = assay type: cell-based
Description: A range of synthetic antimicrobial polypeptides were expressed in E. coli TOP10 (Invitrogen) using arabinose as inducer, as disclosed in Example 1 of International patent application WO 00/73433 (with minor modifications). […] Briefly, fresh overnight cultures grown in RM medium containing 0.2% glucose and ampicillin (100 μg/ml) were diluted 300-fold into 150 microliter of RM containing 0.2% glycerol and ampicillin (100 μg/ml) and different concentrations of arabinose (0, 0.01% or 0.1%) in a microtiter plate and incubated at 37 degrees Celsius with vigorous shaking. The growth curve was monitored by measuring OD450 using a Bioscreen C Microbiology reader (Thermo Electron Corporation) at intervals of 30 minutes for 14 hours (see Invitrogen protocol of the pBAD/gill A, B and C vectors catalogue nos. V450-01 for buffer and media composition). The percentage of growth inhibition was calculated as the end point OD measurement of each sample divided by the end point OD measurement obtained from cells containing the control vector and multiplied by 100. The formula is the following: [formula] where “blank OD” corresponds to the OD of an empty well.

[4] = system: Klebsiella pneumoniae (DSM681); assay type: cell-based
Description: as §1, §3

[5] = Table 4, 0.01% arabinose, end point OD450, 14 hours
[6] = Table 4, 0.1% arabinose, end point OD450, 14 hours
[7] = Table 5, 0.1% arabinose, end point OD450, 14 hours

Sequence: GLLKRLGRKIGKKLKKIAR [SEQ ID NO: 66, GLLKRLGRKIGKKLKKIAR]
- MIC [1]: 64 µg/mL
- MIC [2]: 64 µg/mL
- MIC [3]: 8 µg/mL
- MEC (Escherichia coli Top10): 13.5 µg/mL
- MEC (Staphylococcus camosus): 2 µg/mL
- Growth inhibition using 0.01% arabinose (%) (E. coli TOP10; TOP10, 14 h): 92%
- Growth inhibition using 0.1% arabinose (%) (E. coli TOP10; TOP10, 14 h): 100%

Sequence: GLLRRFRKKIGKKLKKIAR [SEQ ID NO: 62, GLLRRFRKKIGKKLKKIAR]
- MIC [1]: 64 µg/mL
- MIC [2]: 64 µg/mL
- MIC [3]: 16 µg/mL
- MIC [4]: 32 to 64 µg/mL
- MEC (Escherichia coli Top10): 28.0 µg/mL
- MEC (Staphylococcus camosus): 1.1 µg/mL
- Growth inhibition using 0.01% arabinose (%) (E. coli TOP10; TOP10, 14 h): 94%
- Growth inhibition using 0.1% arabinose (%) (E. coli TOP10; TOP10, 14 h): 98%

Sequence: GLLRRFWKKIGKKLKKFGQKIKPLPKLVP [SEQ ID NO: 41]
- MIC [1]: 32 µg/mL
- MIC [2]: 16 µg/mL
- MIC [3]: 32 µg/mL
- MIC [4]: 32 µg/mL
- MEC (Escherichia coli Top10): 16.6 µg/mL
- MEC (Staphylococcus camosus): 3.8 µg/mL
- Growth inhibition using 0.1% arabinose (%) (E. coli TOP10; TOP10, 14 h): 96%

Sequence: GLLRRLRKKIGKKLKKIAR [SEQ ID NO: 59, GLLRRLRKKIGKKLKKIAR]
- MIC [1]: 32 µg/mL
- MIC [2]: 8 µg/mL
- MIC [3]: 16 µg/mL
- MIC [4]: 32 µg/mL
- MEC (Escherichia coli Top10): 18.3 µg/mL
- MEC (Staphylococcus camosus): 1.8 µg/mL
- Growth inhibition using 0.01% arabinose (%) (E. coli TOP10; TOP10, 14 h): 93%
- Growth inhibition using 0.1% arabinose (%) (E. coli TOP10; TOP10, 14 h): 100%

Sequence: GLLRRLWRKIGRKLKKYGQKIKALRKLVP [SEQ ID NO: 13]
- MIC [1]: 32 µg/mL
- MIC [2]: 32 µg/mL
- MIC [3]: 64 µg/mL
- MIC [4]: 32 µg/mL
- MEC (Escherichia coli Top10): 27.0 µg/mL
- MEC (Staphylococcus camosus): 4.4 µg/mL
- Growth inhibition using 0.01% arabinose (%) (E. coli TOP10; TOP10, 14 h): 96%
- Growth inhibition using 0.1% arabinose (%) (E. coli TOP10; TOP10, 14 h): 100%

Sequence: GRFRRFRKKIGKKLKKIGLVIKHIRILVP (Synthetic antimicrobial peptide) [SEQ ID NO: 14]
- Growth inhibition using 0.01% arabinose (%) (E. coli TOP10; [5]): 94%
- Growth inhibition using 0.1% arabinose (%) (E. coli TOP10; [6]): 100%

Sequence: GRFRRLGRKIGEKLKKFGQVIKAIRILVP (Synthetic antimicrobial peptide) [SEQ ID NO: 42]
- Growth inhibition using 0.1% arabinose (%) (E. coli TOP10; [7]): 95%

Sequence: GRIKRVGEKIGKKLKKIGQVIKHLRILVP (Synthetic antimicrobial peptide) [SEQ ID NO: 38]
- MEC (Escherichia coli Top10): 8.5 µg/mL
- MEC (Staphylococcus camosus): 8 µg/mL
- Growth inhibition using 0.1% arabinose (%) (E. coli TOP10; [7]): 96%

Sequence: GRIRRLRRKIRKKLKKYGQKIKAIRKIVP (GRLRRLRRKIRKKLKKYGQKIKAIRKLVP; Synthetic antimicrobial peptide) [SEQ ID NO: 27]
- Growth inhibition using 0.1% arabinose (%) (E. coli TOP10; [7]): 96%

Sequence: GRLRRFGKKIGKKIKKFGQLIKALRILVP (GRLRRFGKKIGKKLKKFGQLIKALRILVP; Synthetic antimicrobial peptide) [SEQ ID NO: 40]
- Growth inhibition using 0.1% arabinose (%) (E. coli TOP10; [7]): 95%

Sequence: GRLRRFRKKIGKKLKKIGQMIKHIRILVP (Synthetic antimicrobial peptide) [SEQ ID NO: 30]
- Growth inhibition using 0.1% arabinose (%) (E. coli TOP10; [7]): 95%

Sequence: GRLRRLGKIUGEKLKKFGQMIKHIRILVP (GRLRRLGKKIGEKLKKFGQMIKHIRILVP; Synthetic antimicrobial peptide) [SEQ ID NO: 53]
- Growth inhibition using 0.1% arabinose (%) (E. coli TOP10; [7]): 84%

Sequence: GRLRRLRRKIGEKLKKFGQVIKALRILVP (Synthetic antimicrobial peptide) [SEQ ID NO: 12]
- Growth inhibition using 0.01% arabinose (%) (E. coli TOP10; [5]): 94%
- Growth inhibition using 0.1% arabinose (%) (E. coli TOP10; [6]): 99%

Sequence: GRLRRLWRKIGRKLKKYGQVIKHLRILVP (Synthetic antimicrobial peptide) [SEQ ID NO: 17]
- Growth inhibition using 0.01% arabinose (%) (E. coli TOP10; [5]): 94%
- Growth inhibition using 0.1% arabinose (%) (E. coli TOP10; [6]): 100%
